From publication PMC9719519, “Non-classical ferroptosis inhibition by a small molecule targeting PHB2” (Nature Communications, 2022)

Legend:
Experiment in all cases: biochemical
Parameters in all cases: Eurofins recombinant human kinase profiling, remaining kinase activity as % of control, 10 uM ATP
Conditions in all cases: ATP 10 uM; read-out: %Ctrl@10 μM
FGFR3(h) = FGFR3(h) (Homo sapiens, UniProt P22607)
Procedure, shortened: (§1)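 Activity measured in a commercial panel of 401 recombinant human protein kinases run as a kinase profiling service.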

IGF-1R(h) = biological target: T1, IGF-1R(h) (Homo sapiens, UniProt P08069)
T1 construct: gene IGF1R
Procedure, shortened: as §1

EphA4(h) = EphA4(h) (Homo sapiens, UniProt P54764)
Procedure, shortened: as §1

MLK1(h) = biological target: T2, MLK1(h) (Homo sapiens, UniProt P80192)
T2 construct: gene MAP3K9
Procedure, shortened: as §1

BIKe(h) = biological target: T3, BIKe(h) (Homo sapiens, UniProt Q9NSY1)
T3 construct: gene BMP2K
Procedure, shortened: as §1

CaMKIIα(h) = biological target: T4, CaMKIIα(h) (Homo sapiens, UniProt Q9UQM7)
T4 construct: gene CAMK2A
Procedure, shortened: as §1

NDR2(h) = biological target: T5, NDR2(h) (Homo sapiens, UniProt Q9Y2H1)
T5 construct: gene STK38L
Procedure, shortened: as §1

WNK1(h) = WNK1(h) (Homo sapiens, UniProt Q9H4A3)
Procedure, shortened: as §1

JAK1(h) = JAK1(h) (Homo sapiens, UniProt P23458)
Procedure, shortened: as §1

CDK2/cyclinE(h) = CDK2/cyclinE(h) (Homo sapiens, UniProt P24941)
Procedure, shortened: as §1

Haspin(h) = Haspin(h) (Homo sapiens, UniProt Q8TF76)
Procedure, shortened: as §1

CK1γ3(h) = biological target: T6, CK1γ3(h) (Homo sapiens, UniProt Q9Y6M4)
T6 construct: gene CSNK1G3
Procedure, shortened: as §1

BrSK2(h) = BrSK2(h) (Homo sapiens, UniProt Q8IWQ3)
Procedure, shortened: as §1

PKCα(h) = biological target: T7, PKCα(h) (Homo sapiens, UniProt P17252)
T7 construct: gene PRKCA
Procedure, shortened: as §1

PKCμ(h) = biological target: T8, PKCμ(h) (Homo sapiens, UniProt Q15139)
T8 construct: gene PRKD1
Procedure, shortened: as §1

Abl (Q252H) (h) = biological target: T9, Abl (Q252H) (h) (Homo sapiens, UniProt P00519, Q252H)
T9 construct: gene ABL1
Procedure, shortened: as §1

PRKG2(h) = PRKG2(h) (Homo sapiens, UniProt Q13237)
Procedure, shortened: as §1

MST1(h) = biological target: T10, MST1(h) (Homo sapiens, UniProt Q13043)
T10 construct: gene STK4
Procedure, shortened: as §1

CLK2(h) = CLK2(h) (Homo sapiens, UniProt P49760)
Procedure, shortened: as §1

TAK1(h) = biological target: T11, TAK1(h) (Homo sapiens, UniProt O43318)
T11 construct: gene MAP3K7
Procedure, shortened: as §1

CDK14/cyclinY(h) = CDK14/cyclinY(h) (Homo sapiens, UniProt O94921)
Procedure, shortened: as §1

IR(h) = biological target: T12, IR(h) (Homo sapiens, UniProt P06213)
T12 construct: gene INSR
Procedure, shortened: as §1

ARK5(h) = biological target: T13, ARK5(h) (Homo sapiens, UniProt O60285)
T13 construct: gene NUAK1
Procedure, shortened: as §1

EphA4(h), sequence (P54764 whole entry): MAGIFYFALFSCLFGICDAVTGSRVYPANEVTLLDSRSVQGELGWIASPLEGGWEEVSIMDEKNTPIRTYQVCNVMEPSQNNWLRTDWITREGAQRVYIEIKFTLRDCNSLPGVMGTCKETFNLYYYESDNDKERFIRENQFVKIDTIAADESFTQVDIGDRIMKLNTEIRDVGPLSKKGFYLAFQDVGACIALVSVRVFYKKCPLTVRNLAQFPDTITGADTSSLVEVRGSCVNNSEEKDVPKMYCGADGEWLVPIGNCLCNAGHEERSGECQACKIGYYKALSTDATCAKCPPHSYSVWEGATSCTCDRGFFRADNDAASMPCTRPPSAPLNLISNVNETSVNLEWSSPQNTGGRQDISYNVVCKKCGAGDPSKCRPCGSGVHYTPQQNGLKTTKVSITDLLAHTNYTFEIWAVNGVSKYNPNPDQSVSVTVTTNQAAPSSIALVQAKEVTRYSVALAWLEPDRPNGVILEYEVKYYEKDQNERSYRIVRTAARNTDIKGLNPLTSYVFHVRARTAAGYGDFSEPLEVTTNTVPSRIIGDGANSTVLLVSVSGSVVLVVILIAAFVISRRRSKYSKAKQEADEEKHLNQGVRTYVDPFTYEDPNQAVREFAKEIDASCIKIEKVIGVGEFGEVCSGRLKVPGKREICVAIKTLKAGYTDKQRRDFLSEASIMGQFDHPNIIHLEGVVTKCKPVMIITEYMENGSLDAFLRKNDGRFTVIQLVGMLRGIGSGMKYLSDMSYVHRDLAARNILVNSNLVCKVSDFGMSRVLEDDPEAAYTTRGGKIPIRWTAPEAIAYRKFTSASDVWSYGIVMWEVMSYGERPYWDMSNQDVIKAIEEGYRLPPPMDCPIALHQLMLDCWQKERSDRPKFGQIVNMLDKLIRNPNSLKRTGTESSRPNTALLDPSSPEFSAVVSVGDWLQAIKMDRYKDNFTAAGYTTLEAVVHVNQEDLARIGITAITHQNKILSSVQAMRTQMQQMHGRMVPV
FGFR3(h), sequence (P22607 whole entry): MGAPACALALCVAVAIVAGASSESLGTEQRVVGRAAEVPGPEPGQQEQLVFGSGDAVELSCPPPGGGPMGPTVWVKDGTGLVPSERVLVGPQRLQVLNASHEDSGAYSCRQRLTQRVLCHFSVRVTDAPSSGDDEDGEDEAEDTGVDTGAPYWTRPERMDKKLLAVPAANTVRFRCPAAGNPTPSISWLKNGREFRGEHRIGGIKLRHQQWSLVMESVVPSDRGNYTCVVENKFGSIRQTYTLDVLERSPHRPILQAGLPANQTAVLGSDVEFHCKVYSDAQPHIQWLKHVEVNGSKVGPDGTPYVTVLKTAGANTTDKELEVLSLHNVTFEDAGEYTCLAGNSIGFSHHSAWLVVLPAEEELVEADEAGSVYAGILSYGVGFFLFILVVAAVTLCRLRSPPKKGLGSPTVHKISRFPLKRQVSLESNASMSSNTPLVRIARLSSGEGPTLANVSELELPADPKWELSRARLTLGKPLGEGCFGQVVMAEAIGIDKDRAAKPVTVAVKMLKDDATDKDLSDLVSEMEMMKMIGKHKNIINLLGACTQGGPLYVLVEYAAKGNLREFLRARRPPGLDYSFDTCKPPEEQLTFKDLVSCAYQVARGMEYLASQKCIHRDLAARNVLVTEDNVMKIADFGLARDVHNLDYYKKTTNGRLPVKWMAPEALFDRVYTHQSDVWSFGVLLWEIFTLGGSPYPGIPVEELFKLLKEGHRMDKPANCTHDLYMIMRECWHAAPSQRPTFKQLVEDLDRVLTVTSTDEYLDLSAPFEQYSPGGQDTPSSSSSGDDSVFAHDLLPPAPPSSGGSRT
T6 sequence (Q9Y6M4 whole entry): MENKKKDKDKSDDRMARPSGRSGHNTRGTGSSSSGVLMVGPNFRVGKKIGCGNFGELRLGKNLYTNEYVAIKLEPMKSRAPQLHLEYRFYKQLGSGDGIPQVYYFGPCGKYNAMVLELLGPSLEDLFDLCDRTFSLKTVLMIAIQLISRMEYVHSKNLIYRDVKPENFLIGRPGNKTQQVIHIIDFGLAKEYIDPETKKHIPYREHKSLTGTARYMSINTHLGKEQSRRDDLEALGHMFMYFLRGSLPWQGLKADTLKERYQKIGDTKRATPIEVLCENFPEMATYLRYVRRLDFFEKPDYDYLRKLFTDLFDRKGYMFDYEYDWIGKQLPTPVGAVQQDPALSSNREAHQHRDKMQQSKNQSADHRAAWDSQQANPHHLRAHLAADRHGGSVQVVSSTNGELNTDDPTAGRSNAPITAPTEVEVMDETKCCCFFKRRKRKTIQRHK
CLK2(h), sequence (P49760 whole entry): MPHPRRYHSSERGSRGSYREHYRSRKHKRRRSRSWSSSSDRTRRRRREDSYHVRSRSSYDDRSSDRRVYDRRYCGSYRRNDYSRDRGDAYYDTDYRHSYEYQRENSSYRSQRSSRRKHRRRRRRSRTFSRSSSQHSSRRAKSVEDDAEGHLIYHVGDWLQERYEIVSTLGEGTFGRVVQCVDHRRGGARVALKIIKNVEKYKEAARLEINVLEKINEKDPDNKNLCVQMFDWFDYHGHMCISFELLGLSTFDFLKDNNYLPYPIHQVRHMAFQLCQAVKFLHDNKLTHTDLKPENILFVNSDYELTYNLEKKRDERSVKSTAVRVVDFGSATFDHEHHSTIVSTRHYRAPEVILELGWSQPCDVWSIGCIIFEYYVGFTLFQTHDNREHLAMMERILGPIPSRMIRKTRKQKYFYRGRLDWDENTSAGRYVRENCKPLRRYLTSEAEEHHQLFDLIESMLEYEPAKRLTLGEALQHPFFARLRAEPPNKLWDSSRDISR
T5 sequence (Q9Y2H1 whole entry): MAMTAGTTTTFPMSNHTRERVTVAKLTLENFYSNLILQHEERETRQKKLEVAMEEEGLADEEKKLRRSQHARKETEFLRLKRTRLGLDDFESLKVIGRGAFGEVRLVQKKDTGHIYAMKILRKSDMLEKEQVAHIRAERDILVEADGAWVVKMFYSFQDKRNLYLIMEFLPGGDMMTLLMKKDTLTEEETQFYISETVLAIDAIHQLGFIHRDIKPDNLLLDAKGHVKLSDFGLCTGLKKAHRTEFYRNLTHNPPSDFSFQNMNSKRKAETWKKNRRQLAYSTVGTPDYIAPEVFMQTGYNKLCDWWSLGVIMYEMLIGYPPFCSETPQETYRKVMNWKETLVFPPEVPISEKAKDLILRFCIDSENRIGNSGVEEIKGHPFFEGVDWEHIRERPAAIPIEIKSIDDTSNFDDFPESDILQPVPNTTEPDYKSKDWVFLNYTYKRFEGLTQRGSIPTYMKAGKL
Haspin(h), sequence (Q8TF76 whole entry): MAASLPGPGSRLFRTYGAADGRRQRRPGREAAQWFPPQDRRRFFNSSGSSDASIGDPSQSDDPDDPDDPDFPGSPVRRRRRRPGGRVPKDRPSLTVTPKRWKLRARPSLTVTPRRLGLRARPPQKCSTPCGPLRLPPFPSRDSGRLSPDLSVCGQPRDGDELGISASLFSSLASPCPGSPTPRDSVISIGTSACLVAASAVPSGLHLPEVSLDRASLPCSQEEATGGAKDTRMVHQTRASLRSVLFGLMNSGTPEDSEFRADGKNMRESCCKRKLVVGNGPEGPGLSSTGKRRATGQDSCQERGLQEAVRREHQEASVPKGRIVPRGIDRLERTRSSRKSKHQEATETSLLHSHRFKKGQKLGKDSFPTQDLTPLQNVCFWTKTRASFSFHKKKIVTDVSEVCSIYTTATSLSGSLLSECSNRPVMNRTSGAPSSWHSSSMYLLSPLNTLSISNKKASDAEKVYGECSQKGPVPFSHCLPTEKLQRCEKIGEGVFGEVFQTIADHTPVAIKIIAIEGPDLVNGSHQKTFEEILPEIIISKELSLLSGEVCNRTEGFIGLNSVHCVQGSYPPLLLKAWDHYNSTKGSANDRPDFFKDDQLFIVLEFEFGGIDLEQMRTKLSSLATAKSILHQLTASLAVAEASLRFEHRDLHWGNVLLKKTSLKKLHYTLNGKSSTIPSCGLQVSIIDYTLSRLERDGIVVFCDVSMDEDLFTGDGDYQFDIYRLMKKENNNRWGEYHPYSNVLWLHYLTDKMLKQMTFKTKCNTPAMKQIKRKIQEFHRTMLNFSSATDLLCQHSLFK

C1=C(c2nc(-c3cnn(C4CCNCC4)c3)cn3cc(-c4ccccc4)nc23)CCOC1 [YL-939]
remaining activity at 10 µM (FGFR3(h)): 83% | remaining activity at 10 µM (IGF-1R(h)): 82% | remaining activity at 10 µM (EphA4(h)): 89% | remaining activity at 10 µM (MLK1(h)): 86% | remaining activity at 10 µM (BIKe(h)): 115% | remaining activity at 10 µM (CaMKIIα(h)): 64% | remaining activity at 10 µM (NDR2(h)): 87% | remaining activity at 10 µM (WNK1(h)): 85% | remaining activity at 10 µM (JAK1(h)): 66% | remaining activity at 10 µM (CDK2/cyclinE(h)): 85% | remaining activity at 10 µM (Haspin(h)): 100% | remaining activity at 10 µM (CK1γ3(h)): 102% | remaining activity at 10 µM (BrSK2(h)): 101% | remaining activity at 10 µM (PKCα(h)): 104% | remaining activity at 10 µM (PKCμ(h)): 77% | remaining activity at 10 µM (Abl (Q252H) (h)): 122% | remaining activity at 10 µM (PRKG2(h)): 97% | remaining activity at 10 µM (MST1(h)): 91% | remaining activity at 10 µM (CLK2(h)): 71% | remaining activity at 10 µM (TAK1(h)): 77% | remaining activity at 10 µM (CDK14/cyclinY(h)): 111% | remaining activity at 10 µM (IR(h)): 114% | remaining activity at 10 µM (ARK5(h)): 93%
